Assays:
Format in all cases: cell-based
[1] = biological target: T1, AeKir1 (Aedes aegypti, UniProt L0EQS9); experiment: Tl+-flux assay in T-REx-HEK293 cells expressing AeKir1; also two-electrode voltage clamp in Xenopus oocytes ([…], […] block)
T1 sequence (L0EQS9 1-486): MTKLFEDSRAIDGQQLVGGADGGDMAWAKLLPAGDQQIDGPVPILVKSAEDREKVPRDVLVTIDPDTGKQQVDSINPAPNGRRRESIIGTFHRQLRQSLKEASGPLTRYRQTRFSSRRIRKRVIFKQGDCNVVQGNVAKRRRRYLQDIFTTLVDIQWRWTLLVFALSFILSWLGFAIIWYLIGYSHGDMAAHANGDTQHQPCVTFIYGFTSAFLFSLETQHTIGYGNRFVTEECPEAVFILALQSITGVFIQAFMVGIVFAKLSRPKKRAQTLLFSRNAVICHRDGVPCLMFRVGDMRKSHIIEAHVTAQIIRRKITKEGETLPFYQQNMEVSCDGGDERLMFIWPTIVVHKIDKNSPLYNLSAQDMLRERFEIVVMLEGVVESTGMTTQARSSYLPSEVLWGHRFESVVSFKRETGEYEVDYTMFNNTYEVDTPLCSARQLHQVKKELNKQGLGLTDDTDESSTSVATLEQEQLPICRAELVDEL

[2] = biological target: T2, AeKir2B (Aedes aegypti, UniProt L0EQ40); experiment: two-electrode voltage clamp in Xenopus oocytes, activation of inward current at […]
T2 sequence (L0EQ40 1-489): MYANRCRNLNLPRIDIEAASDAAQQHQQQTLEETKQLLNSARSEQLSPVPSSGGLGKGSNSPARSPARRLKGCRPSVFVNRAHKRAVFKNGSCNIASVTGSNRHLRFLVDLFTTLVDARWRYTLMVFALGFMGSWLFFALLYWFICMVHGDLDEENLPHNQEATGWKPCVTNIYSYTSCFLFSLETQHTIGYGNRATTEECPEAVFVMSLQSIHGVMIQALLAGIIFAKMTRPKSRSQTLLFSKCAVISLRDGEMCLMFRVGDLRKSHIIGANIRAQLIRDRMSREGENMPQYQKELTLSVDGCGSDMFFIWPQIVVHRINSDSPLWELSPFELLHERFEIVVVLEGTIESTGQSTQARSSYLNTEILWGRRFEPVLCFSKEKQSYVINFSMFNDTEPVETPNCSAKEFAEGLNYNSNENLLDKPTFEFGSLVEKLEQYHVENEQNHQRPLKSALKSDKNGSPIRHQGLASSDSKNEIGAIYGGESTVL

[3] = biological target: T1, AeKir1; experiment: two-electrode voltage clamp in Xenopus oocytes, inhibition of inward current at […]

## O=[N+]([O-])c1ccc(CN2CCOCCOCCN(Cc3ccc([N+](=O)[O-])cc3)CCOCC2)cc1 [VU590]
[1]
  IC50: 5.6 µM

## Cc1ccc(OCC(O)Cn2c(=N)n(Cc3ccccc3)c3ccccc32)cc1 (stereo not drawn) [VU573]
[2]
  % activation at 50 μM: > 50 % activation at 50 µM
[3]
  % inhibition at 50 μM: ~ 50

Source: publication PMC4069099, “Pharmacological Validation of an Inward-Rectifier Potassium (Kir) Channel as an Insecticide Target in the Yellow Fever Mosquito Aedes aegypti” (PLoS ONE, 2014)
